Legend:
Type in all cases: cell-based
[1] = tested on: E. coli O18:K1:H7; experiment: Bacterial killing assay in serum or plasma (complement dependence); details: FIG. 8D; peptides serially diluted to 300 nM, and 30 nM in serum
[2] = tested on: E. coli O18:K1:H7; experiment: Bacterial killing assay without blood (growth medium); details: no blood; for CFU (Range): Table 4, growth medium 6.2
Experimental: Peptides #1, #3 and #4 were tested for their activity without blood on E. coli O18:K1:H7. The peptides were assayed at 3 μM. The same blood and TFPI controls were included as in Experiment I.

[3] = tested on: E. coli O18:K1:H7; experiment: Bacterial killing assay in 10% blood; parameters: CFU / CFU (Range) / CFU 1 hour / CFU 3 hours / CFU 5 hours / CFU 3 hour: scale not given here; details: for activity against O18ac:K1:H7 E. coli strain in blood / CFU / CFU 1 hour / CFU 3 hours / CFU 5 hours / bacterial killing activity (effect on bacterial growth): 10% blood; for activity against O18ac:K1:H7 E. coli strain in blood: concentrations tested 10 nM to 3 μM, peptide #5 compared to peptide #3; for bacterial survival (outgrowth of bacterial colonies): FIG. 11d, E. coli O18ac:K1:H7 in diluted whole blood; for CFU 1 hour / CFU 3 hours / CFU 5 hours: Table 5, 3000 CFU; for CFU 1 hour: blood 3.4; for CFU 3 hours: blood 4.2; for CFU 5 hours: blood 5.1; for bacterial killing activity (effect on bacterial growth): FIGS. 1 and 2, TFPI 5 μM, cathepsin G 400 nM
Experimental: TFPI was incubated with α-thrombin, plasmin, elastase and cathepsin G in 10% blood and tested for bacterial killing activity against E. coli O18:K1:H7 as follows. Recombinant TFPI at 5 μM (unless indicated otherwise), was treated with plasmin (100 nM, lane 3) and α-thrombin (100 nM, lane 7; 1 μM, lane 8) (A), elastase (100 nM, lanes 3 and 4) (B), and cathepsin G (100 nM, lane 4; 1 μM, lanes 5, 6 and 7) (C) in a total volume of 180 μl. The reaction contained TFPI diluted in RPMI 1640 without phenol red, 25 mM Hepes, pH 7.5 (RPMI), 3000 CFU E. coli O18:K1:H7 in 40 μl PBS, and diluted enzyme in 20 μl RPMI. The volume was adjusted with RPMI. The samples were pre-incubated for 15-30 minutes before the addition of anti-coagulant-free fresh blood to a final volume of 200 μl. Controls were 10% blood in RPMI, TFPI at 1, 2 and 5 μM, and the enzymes alone at the respective concentrations. The samples were incubated for 4 hours at 37° C. with 5% CO2 in a humidified incubator and serial dilutions plated on Tryptase soy agar plates. The number of bacterial colonies was determined after overnight incubation at 37° C. All experimental conditions are run in duplicate. The data represent the average colony number.
The 18 μl aliquots were diluted to 10 μM TFPI with 445 μl RPMI 1640 without phenolred, 25 mM Hepes, pH 7.5 (RPMI) and assayed at a final concentration of 5 μM in 200 μl reactions containing 3000 CFU E. coli in 40 μl PBS, 10% non-coagulated blood, and adjusted to the final volume with RPMI. Negative controls were 10% blood in RPMI, TFPI at 5 μM and cathepsin G at 400 nM. Anti-coagulant free blood was freshly drawn and added to the reaction as the last component. The samples were manipulated as described above.
Peptides were designed to test for bacterial killing activity localized in the C-terminal domain of TFPI. Activity was measured against Gram negative (E coli O18:K1:H7. ATCC 700973) bacteria in the presence of 10% blood as described above. Controls were RPMI with 10% blood and 100 nM Tifacogin. The biological activity was determined from the reduction of bacterial colonies, as above.
The three peptides #1, #2, & #3 were diluted in H2O to 10 fold their final assay concentration and incubated with bacteria for 4 hours, at the final concentrations of 3 μM, 300 nM 100 nM and 10 nM. E. coli was used at 3000 CFU/200 μl. Surviving colony numbers were determined as described in Example 1. […] Full-length TFPI has no activity against Gram negative bacteria in these assays at the concentrations tested.
Time-dependency: Peptides were incubated with 3000 CFU E. coli O18:K1:H7 at the indicated final concentrations in the presence of 10% blood in three parallel 200 μl reactions as described above. RPMI with 10% blood was used as negative control. After incubation for 1, 3, or 5 hours samples were assayed for the effect on bacterial survival by plating serial dilutions onto agar plates. […] The effect of peptides on bacterial survival increases over the time-span studied.
In these experiments, variable concentrations of E. coli O18:K1:H7 (3×10^3, 3×10^4 or 3×10^5 CFU/200 μl) were challenged with either 3 μM or 100 nM peptide #3 in RPMI/10% blood, and incubated for 3 or 5 hours before dilution and plating. Briefly, the bacteria were diluted to the indicated CFU in 40 μl PBS, the reactions assembled at a final volume of 200 μl as above, and incubated at 37° C. Serial dilutions of the reactions were plated and the colony number determined after overnight incubation. […] At 5 hours no effect on the high CFU culture was discernable, indicating a titration of the killing activity and the high CFU culture exceeding the capacity.

[4] = tested on: IL-6 secretion; experiment: IL-6 induction assay in diluted whole blood in the presence of LPS; details: FIG. 11c; peptide and LPS dose-dependent
Experimental: The ability of TFPI to induce IL-6 secretion in the presence of LPS was tested using TFPI and TFPI analogs, including: (i) TFPI1-161, having just residues 1-161 of TFPI; (ii) TFPI with mutant K1; (iii) TFPI with mutant K2; (iv) TFPI with mutants K1 and K2.
When diluted, freshly drawn whole blood is incubated with LPS derived from the cell wall of Gram-negative bacteria, a cytokine cascade is induced within a few hours.
A peptide consisting of the 22 C-terminal amino acids of TFPI (i.e. SEQ ID NO:3) was tested in an IL-6 assay in the presence of LPS. […] Thus this peptide appears to be able to neutralize the endotoxin activity of LPS.

[5] = Table 1, peptide 300 nM, 3000 CFU/200 μl, 4 hours, blood control 5.1
[6] = Table 1, peptide 3 μM, 3000 CFU/200 μl, 4 hours, blood control 5.1
[7] = Table 4, in blood, peptide 3 μM, blood control 5.1

## TKRKRKKQRVKIAYEEIFVKNM (homo sapiens) [Peptide #1, TFPI aas 255-276, the 22 C-terminal amino acids of TFPI]
[1]
  bacterial killing activity in serum (rank): greatly reduced activity
[2]; peptide 3 μM
  CFU (Range): 5.6
[3]; 4 hours
  activity against O18ac:K1:H7 E. coli strain in blood: active
[3]; 300 nM of peptide
  bacterial survival (outgrowth of bacterial colonies): killed all bacteria
[3]
  bacterial survival (outgrowth of bacterial colonies): dose-dependently reduced bacterial survival
[3]; [5]
  CFU: 5.2
[3]; [6]
  CFU: 1.1
[3]; [7]
  CFU (Range): 1.1 (0.4-1.2)
[3]; 300 nM
  CFU 1 hour: 3.4
  CFU 3 hours: 4.2
  CFU 5 hours: 4.2
[3]; 3 μM
  CFU 1 hour: 3.4
  CFU 3 hours: 1.2
  CFU 5 hours: 0.2
[3]; Table 9, peptide 3 μm, Heparin, 3 U/mL
  CFU (Range): 5.5
[3]; Table 9, peptide 3 μm, LMW heparin, 0.3 U/mL
  CFU (Range): 4.7 (4.5-5.1)
[3]; Table 9, peptide 3 μm, LMW heparin, 3 U/mL
  CFU (Range): 5.3
[3]; Table 9, peptide 3 μm, no heparin, blood alone 4.9
  CFU (Range): 1.2 (N.D.-1.4)
[3]; peptide 3 μm, un-fractionated heparin at 0.3 U/ml, data not shown
  bacterial killing activity with un-fractionated heparin: partial loss of bacterial killing activity
[4]
  effect of LPS on cytokine production (IL-6): completely reversed the effect of LPS on cytokine production

## LLGDFFRKSKEKIGKEFKRIVQRIKDFLRNLVPRTES [Peptide #4, reference compound]
[2]; 3000 nM
  inhibition of bacteria in the absence of blood: full inhibition of bacteria
[3]; [5]
  CFU: 4.9
[3]; [6]
  CFU: 1.3
[3]; [7]
  CFU (Range): 1.3 (1.3-1.4)
[3]; 300 nM
  CFU 1 hour: 3.3
  CFU 3 hours: 3.9
  CFU 5 hours: 3.1
[3]; 3 μM
  CFU 1 hour: 3.1
  CFU 3 hours: 3.4
  CFU 5 hours: 1.2

## Heparin [reference compound]
[3]; Table 9, blood alone control with Heparin, 3 U/mL, no peptide
  CFU (Range): 5.4 (5.3-5.4)

## GFIQRISKGGLIKTKRKRKKQRVKIAYEEIFVKNM (homo sapiens) [Peptide #5, TFPI aas 242-276]
[3]; 4 hours
  activity against O18ac:K1:H7 E. coli strain in blood: similar, but slightly reduced
[3]; Table 2, peptide 10 nM, blood control 3.5
  CFU: 4.1
[3]; Table 2, peptide 100 nM, blood control 3.5
  CFU: 2.1

## TFPI: all exogenous TFPI in the examples is the TFPI analog ala-TFPI (SEQ ID NO:2), tifacogin
[2]; TFPI control
  CFU (Range): 6.2
[3]; 4 hours
  activity against O18ac:K1:H7 E. coli strain in blood: no activity
[3]
  bacterial killing activity (effect on bacterial growth): did not exhibit a similar activity
[3]; Table 1, TFPI control (100 nM Tifacogin), 3000 CFU/200 μl, 4 hours, blood control 5.1
  CFU: 5.2
[3]; Table 4, in blood, TFPI control
  CFU (Range): 5.2

## NFQRKEKREVIYKVKTKIKAMR (homo sapiens) [Peptide #2, scrambled control peptide, aas 255-276 scramble, reference compound]
[1]
  bacterial killing activity in serum (rank): inactive
[3]; [5]
  CFU: 5.3
[3]; [6]
  CFU: 5.4
[3]; 3 μM
  CFU 1 hour: 3.4
  CFU 3 hours: 4.3
  CFU 5 hours: 5.2

B1: Cathepsin G: protease used to digest TFPI, tested alone as negative control at 400 nM (protein, UniProt P08311 21-244, looked up)
Cathepsin G: IIGGRESRPHSRPYMAYLQIQSPAGQSRCGGFLVREDFVLTAAHCWGSNINVTLGAHNIQRRENTQQHITARRAIRHPQYNQRTIQNDIMLLQLSRRVRRNRNVNPVALPRAQEGLRPGTLCTVAGWGRVSMRRGTDTLREVQLRVQRDRQCLRIFGSYDPRRQICVGDRRERKAAFKGDSGGPLLCNNVAHGIVSYGKSSGVPPEVFTRVSSFLPWIRTTMRS
[3]
  bacterial killing activity (effect on bacterial growth): did not exhibit a similar activity
